Results reported in patent US20260035382A1, “COMPOUNDS AS SUMO ACTIVATING ENZYME INHIBITORS” (WIGEN BIOMEDICINE TECHNOLOGY (SHANGHAI) CO., LTD., priority 2022, published 2026).

These compounds were tested against SAE (Homo sapiens (Human), UniProt Q9UBT2) (assay: In vitro inhibitory activity assay against SAE (SUMO-2/3 immunofluorescence in HCT116 cells)). Details: 6 h incubation, class symbols, read-out: SUMO IF IC50.
Assay type: cell-based
In short: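 HCT116 cells treated with compounds for 6 h at 37 °C, then fixed, permeabilized and immunostained for SUMO-2/3 with FITC secondary detection. Fluorescence compared with DMSO control to give inhibition rate and IC50.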

SAE, sequence (Q9UBT2 whole entry): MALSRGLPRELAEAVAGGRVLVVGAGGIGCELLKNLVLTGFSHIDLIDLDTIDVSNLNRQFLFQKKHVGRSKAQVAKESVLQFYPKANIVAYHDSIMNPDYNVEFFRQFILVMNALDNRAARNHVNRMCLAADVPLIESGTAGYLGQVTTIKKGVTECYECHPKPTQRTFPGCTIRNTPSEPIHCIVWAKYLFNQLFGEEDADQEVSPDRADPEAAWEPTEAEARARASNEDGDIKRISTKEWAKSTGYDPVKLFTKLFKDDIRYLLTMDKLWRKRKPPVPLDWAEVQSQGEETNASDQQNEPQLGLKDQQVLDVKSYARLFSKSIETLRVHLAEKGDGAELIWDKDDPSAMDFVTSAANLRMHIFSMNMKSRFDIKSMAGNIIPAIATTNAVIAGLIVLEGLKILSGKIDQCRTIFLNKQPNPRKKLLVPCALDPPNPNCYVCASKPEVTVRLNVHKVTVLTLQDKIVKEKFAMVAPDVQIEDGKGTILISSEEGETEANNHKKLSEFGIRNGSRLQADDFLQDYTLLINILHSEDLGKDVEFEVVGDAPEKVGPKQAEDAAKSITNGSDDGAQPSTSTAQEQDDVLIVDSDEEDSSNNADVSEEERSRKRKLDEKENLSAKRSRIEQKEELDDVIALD
SAE, sequence (Q9UBE0 whole entry partner): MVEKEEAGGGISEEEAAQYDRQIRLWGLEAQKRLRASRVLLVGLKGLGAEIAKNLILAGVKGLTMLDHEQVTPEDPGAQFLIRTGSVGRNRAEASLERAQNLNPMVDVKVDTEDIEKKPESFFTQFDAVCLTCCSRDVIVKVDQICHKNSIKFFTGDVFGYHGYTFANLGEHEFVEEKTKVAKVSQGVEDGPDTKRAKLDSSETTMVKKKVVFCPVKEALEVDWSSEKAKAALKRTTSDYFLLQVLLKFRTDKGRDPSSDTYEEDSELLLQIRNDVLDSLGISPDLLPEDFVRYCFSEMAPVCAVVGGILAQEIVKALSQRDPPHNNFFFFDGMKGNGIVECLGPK

SMILES	IC50 [nM]
NS(=O)(=O)OC[C@H]1C[C@@H](Nc2ncncc2C(=O)c2cc3c(s2)CCC[C@@]32NCC3(CC3)c3ccc(Cl)cc32)C[C@@H]1O [Compound 152]	> 200
NS(=O)(=O)OC[C@H]1C[C@@H](Nc2ncncc2C(=O)c2cc3c(s2)CCC[C@]32NCC3(CC3)c3ccc(Cl)cc32)C[C@@H]1O [Compound 153]	≤ 50
NS(=O)(=O)OC[C@H]1C[C@@H](Nc2ncncc2C(=O)c2cc3c(s2)C(F)=CC32NCCc3ccc(Cl)cc32)C[C@@H]1O (stereo partly shown) [Compound 154]	≤ 50
NS(=O)(=O)OC[C@H]1C[C@@H](Nc2ncncc2C(=O)c2cc3c(s2)C(F)=C[C@@]32NCCc3ccc(Cl)cc32)C[C@@H]1O [Compound 155]	> 200
NS(=O)(=O)OC[C@H]1C[C@@H](Nc2ncncc2C(=O)c2cc3c(s2)C(F)=C[C@]32NCCc3ccc(Cl)cc32)C[C@@H]1O [Compound 156]	≤ 50
CC1=CC2(NCCc3ccc(Cl)cc32)c2cc(C(=O)c3cncnc3N[C@@H]3C[C@H](COS(N)(=O)=O)[C@@H](O)C3)sc21 (stereo partly shown) [Compound 157]	50 to 200
CC1=C[C@@]2(NCCc3ccc(Cl)cc32)c2cc(C(=O)c3cncnc3N[C@@H]3C[C@H](COS(N)(=O)=O)[C@@H](O)C3)sc21 [Compound 158]	> 200
CC1=C[C@]2(NCCc3ccc(Cl)cc32)c2cc(C(=O)c3cncnc3N[C@@H]3C[C@H](COS(N)(=O)=O)[C@@H](O)C3)sc21 [Compound 159]	≤ 50
NS(=O)(=O)OC[C@H]1C[C@@H](Nc2ncncc2C(=O)c2cc3c(s2)C(F)(F)CC32NCCc3ccc(Cl)cc32)C[C@@H]1O (stereo partly shown) [Compound 160]	50 to 200
NS(=O)(=O)OC[C@H]1C[C@@H](Nc2ncncc2C(=O)c2cc3c(s2)C(F)(F)C[C@@]32NCCc3ccc(Cl)cc32)C[C@@H]1O [Compound 161]	> 200
NS(=O)(=O)OC[C@H]1C[C@@H](Nc2ncncc2C(=O)c2cc3c(s2)C(F)(F)C[C@]32NCCc3ccc(Cl)cc32)C[C@@H]1O [Compound 162]	50 to 200
NS(=O)(=O)OC[C@H]1C[C@@H](Nc2ncncc2C(=O)c2cc3c(s2)CCCC32NC(=O)Cc3ccc(Cl)cc32)C[C@@H]1O (stereo partly shown) [Compound 163]	> 200
NS(=O)(=O)OC[C@H]1C[C@@H](Nc2ncncc2C(=O)c2cc3c(s2)CCC[C@@]32NC(=O)Cc3ccc(Cl)cc32)C[C@@H]1O [Compound 164]	> 200
NS(=O)(=O)OC[C@H]1C[C@@H](Nc2ncncc2C(=O)c2cc3c(s2)CCC[C@]32NC(=O)Cc3ccc(Cl)cc32)C[C@@H]1O [Compound 165]	> 200
NS(=O)(=O)OC[C@H]1C[C@@H](Nc2ncncc2C(=O)c2cc3c(s2)C(=O)CC32NCCc3ccc(Cl)cc32)C[C@@H]1O (stereo partly shown) [Compound 166]	50 to 200
NS(=O)(=O)OC[C@H]1C[C@@H](Nc2ncncc2C(=O)c2cc3c(s2)C(=O)C[C@@]32NCCc3ccc(Cl)cc32)C[C@@H]1O [Compound 167]	> 200
NS(=O)(=O)OC[C@H]1C[C@@H](Nc2ncncc2C(=O)c2cc3c(s2)C(=O)C[C@]32NCCc3ccc(Cl)cc32)C[C@@H]1O [Compound 168]	50 to 200
NS(=O)(=O)OC[C@H]1C[C@@H](Nc2ncncc2C(=O)c2cc3c(s2)C=C[C@@]32NCCc3ccc(F)cc32)C[C@@H]1O [Compound 177]	> 200
NS(=O)(=O)OC[C@H]1C[C@@H](Nc2ncncc2C(=O)c2cc3c(s2)C=C[C@]32NCCc3ccc(F)cc32)C[C@@H]1O [Compound 178]	≤ 50
COc1ccc2c(c1)[C@]1(CCCc3sc(C(=O)c4cncnc4N[C@@H]4C[C@H](COS(N)(=O)=O)[C@@H](O)C4)cc31)NCC2 [Compound 179]	> 200
COc1ccc2c(c1)[C@@]1(CCCc3sc(C(=O)c4cncnc4N[C@@H]4C[C@H](COS(N)(=O)=O)[C@@H](O)C4)cc31)NCC2 [Compound 180]	> 200
CCN1Cc2sc(C(=O)c3cncnc3N[C@@H]3C[C@H](COS(N)(=O)=O)[C@@H](O)C3)cc2C2(C1)NCCc1ccc(Cl)cc12 (stereo partly shown) [Compound 181]	≤ 50
CC(C)N1Cc2sc(C(=O)c3cncnc3N[C@@H]3C[C@H](COS(N)(=O)=O)[C@@H](O)C3)cc2C2(C1)NCCc1ccc(Cl)cc12 (stereo partly shown) [Compound 184]	≤ 50
NS(=O)(=O)OC[C@H]1C[C@@H](Nc2ncncc2C(=O)c2cc3c(s2)CN(CC(F)(F)F)CC32NCCc3ccc(Cl)cc32)C[C@@H]1O (stereo partly shown) [Compound 187]	≤ 50
C=CCN1Cc2sc(C(=O)c3cncnc3N[C@@H]3C[C@H](COS(N)(=O)=O)[C@@H](O)C3)cc2C2(C1)NCCc1ccc(Cl)cc12 (stereo partly shown) [Compound 190]	≤ 50
C#CCN1Cc2sc(C(=O)c3cncnc3N[C@@H]3C[C@H](COS(N)(=O)=O)[C@@H](O)C3)cc2C2(C1)NCCc1ccc(Cl)cc12 (stereo partly shown) [Compound 193]	≤ 50
[2H]C1([2H])Cc2ccc(Cl)cc2C2(CCCc3sc(C(=O)c4cncnc4N[C@@H]4C[C@H](COS(N)(=O)=O)[C@@H](O)C4)cc32)N1 (stereo partly shown) [Compound 196]	50 to 200

Same assay, conditions: 6 h incubation, numeric values, read-out: SUMO IF IC50

SMILES	IC50 [nM]
NS(=O)(=O)OC[C@H]1C[C@@H](Nc2ncncc2C(=O)c2cc3c(s2)C=C[C@@]32NCCc3ccc(Cl)cc32)C[C@@H]1O [Compound 175]	> 1000
NS(=O)(=O)OC[C@H]1C[C@@H](Nc2ncncc2C(=O)c2cc3c(s2)C=C[C@]32NCCc3ccc(Cl)cc32)C[C@@H]1O [Compound 176]	23.2
CCN1Cc2sc(C(=O)c3cncnc3N[C@@H]3C[C@H](COS(N)(=O)=O)[C@@H](O)C3)cc2[C@@]2(C1)NCCc1ccc(Cl)cc12 [Compound 182]	> 1000
CCN1Cc2sc(C(=O)c3cncnc3N[C@@H]3C[C@H](COS(N)(=O)=O)[C@@H](O)C3)cc2[C@]2(C1)NCCc1ccc(Cl)cc12 [Compound 183]	18.7
CC(C)N1Cc2sc(C(=O)c3cncnc3N[C@@H]3C[C@H](COS(N)(=O)=O)[C@@H](O)C3)cc2[C@@]2(C1)NCCc1ccc(Cl)cc12 [Compound 185]	> 1000
CC(C)N1Cc2sc(C(=O)c3cncnc3N[C@@H]3C[C@H](COS(N)(=O)=O)[C@@H](O)C3)cc2[C@]2(C1)NCCc1ccc(Cl)cc12 [Compound 186]	16.3
NS(=O)(=O)OC[C@H]1C[C@@H](Nc2ncncc2C(=O)c2cc3c(s2)CN(CC(F)(F)F)C[C@@]32NCCc3ccc(Cl)cc32)C[C@@H]1O [Compound 188]	> 1000
NS(=O)(=O)OC[C@H]1C[C@@H](Nc2ncncc2C(=O)c2cc3c(s2)CN(CC(F)(F)F)C[C@]32NCCc3ccc(Cl)cc32)C[C@@H]1O [Compound 189]	24.5
C=CCN1Cc2sc(C(=O)c3cncnc3N[C@@H]3C[C@H](COS(N)(=O)=O)[C@@H](O)C3)cc2[C@@]2(C1)NCCc1ccc(Cl)cc12 [Compound 191]	> 1000
C=CCN1Cc2sc(C(=O)c3cncnc3N[C@@H]3C[C@H](COS(N)(=O)=O)[C@@H](O)C3)cc2[C@]2(C1)NCCc1ccc(Cl)cc12 [Compound 192]	25.1
C#CCN1Cc2sc(C(=O)c3cncnc3N[C@@H]3C[C@H](COS(N)(=O)=O)[C@@H](O)C3)cc2[C@@]2(C1)NCCc1ccc(Cl)cc12 [Compound 194]	> 1000
C#CCN1Cc2sc(C(=O)c3cncnc3N[C@@H]3C[C@H](COS(N)(=O)=O)[C@@H](O)C3)cc2[C@]2(C1)NCCc1ccc(Cl)cc12 [Compound 195]	21.3
[2H]C1([2H])Cc2ccc(Cl)cc2[C@]2(CCCc3sc(C(=O)c4cncnc4N[C@@H]4C[C@H](COS(N)(=O)=O)[C@@H](O)C4)cc32)N1 [Compound 197]	> 1000
